From PMC2765639 (PLoS Neglected Tropical Diseases, 2009)
Like-named read-outs stand apart in the source and are kept apart here.

Columns and labels:
[1] = test system: L. major promastigotes; assay: L. major promastigote drug susceptibility assay (alamar blue, 384-well); type: cell-based, Leishmania major; details: Leishmania major
Protocol: Promastigotes were grown in vented T75 tissue culture flasks and maintained at 28°C. Promastigote cultures were initiated at 10^5 parasites per mL and subcultured every 3–4 days. L. major promastigote counts were performed in duplicate using a hemocytometer and particle counter (Beckman Coulter, Fullerton, CA). For HTS assays, L. major promastigote cultures were harvested during exponential growth phase (∼2.0–3.0×10^7 parasites/mL) and were not maintained past passage 20.
The final test compound concentration was 10 µM with a constant DMSO concentration of 1% in each assay well.
The L. major promastigote drug susceptibility assay was performed in a final volume of 25 µL using our previously described 384-well microtiter plate format,[39]. For automated HTS procedures, L. major promastigotes (5,000 parasites/22 µL) in complete growth medium were seeded into each well of the microtiter plates using a MAPC2 bulk dispenser (Titertek, Huntsville, AL). Test and control compounds (3 µL) were added to individual wells using a Velocity 11 V-prep (Menlo Park, CA) liquid handling system, equipped with a 384-well dispensing head, followed by centrifugation at 50 g for 1 min. […] Assay plates were allowed to incubate for 44 h at 28°C in the presence of 5% CO2. Five µL of alamar blue reagent were added to each assay plate well and incubated for 4 h at 28°C with 5% CO2. Data were captured on a Molecular Devices SpectraMax M5 (excitation560; emission590). Individual assay plate Z-factors were derived from the vehicle and positive controls, and data from plates were used only if Z-factors were >0.5 [50].
The assays were performed in duplicate with a final 10-point concentration range spanning 0.01–5.00 µM.

[2] = test system: L. major axenic amastigote-like population; assay: L. major axenic amastigote-like alamar blue assay (pH 4.9); type: cell-based, Leishmania major; details: for EC50: Leishmania major
[3] = test system: A549; assay: Mammalian cell line specificity assay (alamar blue); type: cell-based, human; details: Homo sapiens
Protocol: (§1) Mammalian cells were cultured and maintained according to ATCC specifications (ATCC, Manassas, VA). Cell line drug susceptibility assays were performed in final volumes of 25 µL using our previously described 384-well microtiter plate format,[39]. […] Test and control compounds were added to individual wells as described above. Vehicle and positive controls were 1% DMSO and 10% DMSO, respectively (final well concentrations). Assay plates were incubated for 44–46 h at 37°C in the presence of 5% CO2 and growth inhibitory effects were determined as described above. Five µL of alamar blue reagent was added to each well and incubated for 2–4 h. Data were captured as described above.

[4] = test system: HeLa; assay: as above; type: cell-based, human; details: Homo sapiens, HeLa, read-out: HeLa EC50 (AVE±SD)
Protocol: as §1

[5] = test system: IMR-90; assay: as above; type: cell-based, human; details: Homo sapiens
Protocol: as §1

[6] = test system: MDA-MB-231; assay: as above; type: cell-based, human; details: Homo sapiens
Protocol: as §1

[7] = test system: PC-3; assay: as above; type: cell-based, human; details: Homo sapiens
Protocol: as §1

[8] = test system: L. major; assay: In vivo murine CL efficacy study (footpad lesion model); set-up: species or system Balb/c mice; details: for decrease in footpad thickness: 40 mg/kg; for reduction in footpad thickness: 160 mg/kg, vs vehicle
Protocol: Adult female Balb/c mice (6 to 10 week old) were obtained from (Charles River Laboratories, Wilmington, MA) and maintained as outlined by the National Institutes of Health Guide for the Care and Use of Laboratory Animals. All in vivo studies were carried out in accordance with protocols approved by the Institutional Animal Care and Use Committee (IACUC) at the University of Miami (IACUC number C01-08). Food and water were supplied ad libitum. […] Animals were examined daily to determine lesion development. […] Control mice were injected with an equivalent amount of vehicle control or amphotericin B (12.5 mg/kg). […] Mice were euthanized in a CO2 chamber at day 21.

[9] = test system: L. major promastigotes; assay: Flow cytometer-based growth inhibition and cytotoxicity assay; details: Leishmania major, 48 h, read-out: L. major promastigote EC50 (AVE±SD) Confirmation Flow Cytometry
[10] = test system: human cell lines; assay: Human cell line panel (A549, HeLa, IMR-90, PC-3, MDA-MB-231); type: cell-based
Protocol: Mammalian cells were cultured and maintained according to ATCC specifications (ATCC, Manassas, VA). Cell line drug susceptibility assays were performed in final volumes of 25 µL using our previously described 384-well microtiter plate format,[39]. Briefly, for automated HTS procedures, cells (A549, IMR-90 and, HeLa, 1,000 cells; PC-3, 750 cells and; MDA-MB-231, 3,000 cells) in complete culture medium were seeded into each well of 384-well microtiter plates using a Titertek MAPC-2 bulk dispenser. Test and control compounds were added to individual wells as described above. Vehicle and positive controls were 1% DMSO and 10% DMSO, respectively (final well concentrations). Assay plates were incubated for 44–46 h at 37°C in the presence of 5% CO2 and growth inhibitory effects were determined as described above. Five µL of alamar blue reagent was added to each well and incubated for 2–4 h. Data were captured as described above.

[11] = 48 h, compounds from commercial supplier, 44 h + 4 h alamar blue, 28°C, read-out: L. major promastigote EC50 (AVE±SD) Confirmation Alamar Blue
[12] = pH 4.9, 144 h, 32°C, read-out: L. major axenic amastigote-like EC50 (AVE±SD) Confirmation Alamar Blue
[13] = A549, 44–46 h, alamar blue, read-out: A549 EC50 (AVE±SD)
[14] = IMR-90, 44–46 h, alamar blue, read-out: IMR90 EC50 (AVE±SD)
[15] = MDA-MB-231, 44–46 h, alamar blue, read-out: MDA EC50 (AVE±SD)
[16] = PC-3, 44–46 h, alamar blue, read-out: PC-3 EC50 (AVE±SD)
[17] = Table S1, PMLSC library samples, 10-point 0.01–5.00 µM, read-out: EC50 Ave ± SD, Lm
[18] = A549, Table S1, PMLSC library samples, read-out: EC50 Ave ± SD, A549

SMILES | EC50 [1, 11] [nM] | EC50 [2, 12] [nM] | EC50 [3, 13] [nM] | EC50 ([4]; 44–46 h, alamar blue) [nM] | EC50 [5, 14] [nM] | EC50 [6, 15] [nM] | EC50 [7, 16] [nM] | EC50 [9] [nM] | growth inhibition of human cell lines tested [10] | EC50 [1, 17] [nM] | EC50 [3, 18] [nM] | also measured
C[C@@H]1[C@H](O)[C@@H](C)/C=C/C=C/C=C/C=C/C=C/C=C/C=C/[C@H](O[C@@H]2O[C@H](C)[C@@H](O)[C@H](N)[C@@H]2O)C[C@@H]2O[C@](O)(C[C@@H](O)C[C@@H](O)[C@H](O)CC[C@@H](O)C[C@@H](O)CC(=O)O[C@H]1C)C[C@H](O)[C@H]2C(=O)O [Amphotericin B, reference compound] | 210 ± 10 | 380 ± 10 | > 50000 | > 50000 | 8700 ± 2400 | > 50000 | > 50000 | 190 ± 60 | – | – | – | EC50 ([1]; assay optimization, read-out: EC50, L. major promastigotes, 384-well format): 207 ± 11 nM; reduction in footpad swelling (in vivo effects, summary) ([8]; summary statement in results/discussion): 85–90%
NC(=O)c1cn([C@@H]2O[C@H](CO)[C@@H](O)[C@H]2O)c2ncnc(N)c12 [Sangivamycin, reference compound] | – | – | – | – | – | – | – | 140 ± 20 | inhibited the growth of human cell lines tested | – | – | EC50 ([1]; read-out: EC50 Ave ± SD, Lm): 164 ± 11 nM; EC50 ([2]; 144 h, pH 4.9, read-out: L. major axenic amastigote-like EC50 (AVE±SD) Confirmation Alamar Blue): 4300 ± 300 nM; EC50 ([3]; A549, read-out: A549 EC50 (AVE±SD)): 70 ± 20 nM; EC50 ([3]; A549, read-out: EC50 Ave ± SD, A549): 72 ± 5 nM; EC50 [4]: > 50000 nM; EC50 ([5]; IMR-90, read-out: IMR90 EC50 (AVE±SD)): > 50000 nM; EC50 ([6]; MDA-MB-231, read-out: MDA EC50 (AVE±SD)): > 50000 nM; EC50 ([7]; PC-3, read-out: PC-3 EC50 (AVE±SD)): > 50000 nM
CCN(CC)C(=S)SSC(=S)N(CC)CC [Disulfiram] | 500 ± 50 | 130 ± 10 | > 50000 | > 50000 | > 50000 | > 50000 | > 50000 | 190 ± 60 | – | 263 ± 20 | 2160 ± 1220 | growth inhibitory activity in axenic amastigote-like assay ([2]; pH 4.9): comparable to amphotericin B; decrease in footpad thickness ([8]; day 14): 25%; decrease in footpad thickness ([8]; day 21): 35%; reduction in footpad thickness ([8]; day 14 post-infection): ~43%; reduction in footpad thickness ([8]; day 21 post-infection): 50%
N[C@H](C(=O)O)[C@@H]1CC(Cl)=NO1 [Acivicin, reference compound] | 6 ± 1 | 1100 ± 60 | 4400 ± 400 | 3900 ± 3000 | 6700 ± 400 | > 50000 | > 50000 | 40 ± 10 | inhibited the growth of human cell lines tested | 177 ± 3 | > 5000 | –
